Measurements taken from paper PMC6271338, “Synthesis and Cytotoxic Evaluation of Alkoxylated Chalcones” (Molecules, 2014).

Tests used:
HepG2 cells = experiment: In vitro anti-proliferative SRB assay, HepG2; type: cell-based, human; settings: for IC50 / inhibition at 10 µM: Homo sapiens; for IC50: HepG2, increasing concentrations up to 30 μM, mean ± SD of at least three independent experiments
Protocol: (§1) HepG2 and MCF7 cells were grown in the Eagle’s minimum essential medium with Earle’s balanced salts (MEM-EBSS) medium, HeLa, A549 and L02 cells were grown in Dulbecco’s Modified Eagle Media (DMEM), SW1990 cells were grown in RPMI-1640 medium, and HMLE cell were grown in DMEM/F-12 medium. […]
(§2) Cells were seeded into 96-well plates (4000 cells/well) and incubated at 37 °C in a humidified 5% CO2 atmosphere. After 24 h, the cells were treated with different concentrations of the compounds for 48 h in triplicate to generate dose-response curves. Cell viability was evaluated using the sulforhodamine B (SRB) assay as previous described.

HeLa cells = experiment: In vitro anti-proliferative SRB assay, HeLa; type: cell-based, human; settings: for IC50: Homo sapiens, HeLa, increasing concentrations up to 30 μM, mean ± SD of at least three independent experiments
Protocol: as §1, §2

MCF-7 cells = experiment: In vitro anti-proliferative SRB assay, MCF-7; type: cell-based, human; settings: for IC50: Homo sapiens, MCF7, increasing concentrations up to 30 μM, mean ± SD of at least three independent experiments
Protocol: as §1, §2

A549 cells = experiment: In vitro anti-proliferative SRB assay, A549; type: cell-based, human; settings: for IC50: Homo sapiens, A549, increasing concentrations up to 30 μM, mean ± SD of at least three independent experiments
Protocol: as §1, §2

SW1990 cells = experiment: In vitro anti-proliferative SRB assay, SW1990; type: cell-based, human; settings: for IC50: Homo sapiens, SW1990, increasing concentrations up to 30 μM, mean ± SD of at least three independent experiments
Protocol: as §1, §2

[1] = Cytotoxicity (SRB) against non-tumoral HMLE cells; type: cell-based, human; settings: human, HMLE cells (non-tumoral human mammary epithelial cells); increasing concentrations up to 100 μM; mean ± SD of at least three independent experiments; read-out: Normal Human Cell Lines, CC50, HMLE
Protocol: (§3) All compounds were also evaluated for their cytotoxic activity against two non-tumoral human cell lines named human mammary epithelial cell (HMLE) and L02 (a human liver cell line) in Table 2 and SI values between the CC50 in non-tumoral cell lines and IC50 in tumoral cells calculated.
as §1
as §2, with “described. […] Etoposide was used as the positive control.” for “described.”

[2] = Cytotoxicity (SRB) against non-tumoral L02 cells; type: cell-based, human; settings: human, L02 cells (non-tumoral human liver cell line); increasing concentrations up to 100 μM; mean ± SD of at least three independent experiments; read-out: Normal Human Cell Lines, CC50, L02
Protocol: as §3, §1
as §2, with “described. […] Etoposide was used as the positive control.” for “described.”

[3] = HepG2 cells, 10 μM, SRB assay, mean ± SD of three independent experiments

COc1cc([C@@H]2c3cc4c(cc3[C@@H](O[C@@H]3O[C@@H]5CO[C@@H](C)O[C@H]5[C@H](O)[C@H]3O)[C@H]3COC(=O)[C@H]23)OCO4)cc(OC)c1O [Etoposide, reference compound]
IC50 (HepG2 cells): 5.11 ± 0.45 µM
inhibition at 10 µM (HepG2 cells; [3]): 63.9 ± 0.1%
IC50 (HeLa cells): 3.96 ± 0.17 µM
IC50 (MCF-7 cells): 20.6 ± 0.34 µM
IC50 (A549 cells): 3.23 ± 0.28 µM
IC50 (SW1990 cells): 29.3 ± 1.73 µM
CC50 at 48 h [1]: 6.42 ± 0.39 µM
CC50 at 48 h [2]: > 100 µM

COc1ccc(C(=O)/C=C/c2cccc(OC)c2)cc1 [a9, (E)-1-(4-Methoxyphenyl)-3-(3-methoxyphenyl)prop-2-en-1-one]
inhibition at 10 µM (HepG2 cells; [3]): 59 ± 2.9%
melting point: 95.7 to 97 °C

COc1ccc(C(=O)/C=C/c2ccc(Br)cc2Cl)cc1 [a5, (E)-1-(4-Methoxyphenyl)-3-(4-bromo-2-chlorophenyl)prop-2-en-1-one]
inhibition at 10 µM (HepG2 cells; [3]): 9 ± 5.6%
melting point: 145.3 to 146.4 °C

COc1ccc(C(=O)/C=C/c2ccc(OC)c(OC)c2)cc1 [a15, (E)-1-(4-Methoxyphenyl)-3-(3,4-dimethoxyphenyl)prop-2-en-1-one]
inhibition at 10 µM (HepG2 cells; [3]): 65 ± 17.6%

(E)-1-(4-Methoxyphenyl)-3-(4-carbonylphenyl)prop-2-en-1-one [a7]
Inhibition (%) (HepG2 cells; [3]): 32.7 ± 3.0%

COc1ccc(C(=O)/C=C/c2ccccc2)cc1 [a1, (E)-1-(4-Methoxyphenyl)-3-phenylprop-2-en-1-one]
inhibition at 10 µM (HepG2 cells; [3]): 42.4 ± 2%

COc1cccc(OC)c1/C=C/C(=O)c1ccccc1 [b1, (E)-1-Phenyl-3-(2,6-dimethoxyphenyl)prop-2-en-1-one]
IC50 (HepG2 cells): 21 ± 1.75 µM
SI (CC50 HMLE/IC50 HepG2) (HepG2 cells; selectivity index, HMLE vs HepG2): 0.5
SI (CC50 L02/IC50 HepG2) (HepG2 cells; selectivity index, L02 vs HepG2): 1.6
IC50 (HeLa cells): > 30 µM
SI (CC50 HMLE/IC50 Hela) (HeLa cells; selectivity index, HMLE vs HeLa): <0.3
SI (CC50 L02/IC50 Hela) (HeLa cells; selectivity index, L02 vs HeLa): <1.1
IC50 (MCF-7 cells): 28.18 ± 0.04 µM
SI (CC50 HMLE/IC50 MCF7) (MCF-7 cells; selectivity index, HMLE vs MCF7): 0.3
SI (CC50 L02/IC50 MCF7) (MCF-7 cells; selectivity index, L02 vs MCF7): 1.2
IC50 (A549 cells): > 30 µM
SI (CC50 HMLE/IC50 A549) (A549 cells; selectivity index, HMLE vs A549): <0.3
SI (CC50 L02/IC50 A549) (A549 cells; selectivity index, L02 vs A549): <1.1
IC50 (SW1990 cells): > 30 µM
SI (CC50 HMLE/IC50 SW1990) (SW1990 cells; selectivity index, HMLE vs SW1990): <0.3
SI (CC50 L02/IC50 SW1990) (SW1990 cells; selectivity index, L02 vs SW1990): <1.1
CC50 at 48 h [1]: 9.47 ± 0.39 µM
melting point: 52.6 to 54.7 °C

COc1ccc(C(=O)/C=C/c2ccc(Br)cc2)cc1 [a2, (E)-1-(4-Methoxyphenyl)-3-(4-bromophenyl)prop-2-en-1-one]
inhibition at 10 µM (HepG2 cells; [3]): 37.6 ± 4.4%
melting point: 153.7 to 155.1 °C

COc1ccc(C(=O)/C=C/c2c(OC)cccc2OC)cc1 [a14, (E)-1-(4-Methoxyphenyl)-3-(2,6-dimethoxyphenyl)prop-2-en-1-one]
inhibition at 10 µM (HepG2 cells; [3]): 78.1 ± 4.7%
melting point: 123.7 to 125.7 °C

CCOc1ccc(/C=C/C(=O)c2ccc(OC)cc2)cc1 [a11, (E)-1-(4-Methoxyphenyl)-3-(4-ethoxyphenyl)prop-2-en-1-one]
inhibition at 10 µM (HepG2 cells; [3]): 13.1 ± 8.4%
melting point: 106.3 to 107.9 °C

COc1ccc(C(=O)/C=C/c2ccc([N+](=O)[O-])cc2)cc1 [a6, (E)-1-(4-Methoxyphenyl)-3-(4-nitrophenyl)prop-2-en-1-one]
inhibition at 10 µM (HepG2 cells; [3]): 9.8 ± 5%

COc1ccc(C(=O)/C=C/c2ccc(F)cc2Br)cc1 [a4, (E)-1-(4-Methoxyphenyl)-3-(2-bromo-4-fluorophenyl)prop-2-en-1-one]
inhibition at 10 µM (HepG2 cells; [3]): 41.2 ± 4.6%
melting point: 98.7 to 101 °C
